Measured values: patent US9988430B2, “Stable GLP-1 based GLP-1/glucagon receptor co-agonists” (Novo Nordisk A/S, priority 2014, dated 2018)
*1 amine or outer side, *2 acyl side, *3 side chain or, on linkers, in order; H or OH if unused. Where a SMILES comes first, the peptide text is derived from it. Bridges are numbered along the chain shown (N, C = ends). Roman numbers before positions name the chains, in order. [ ]: non-standard residue; d: D form. The star is where a group is joined. C18 diacid = O=C(O)CCCCCCCCCCCCCCCCC(=O)*; γGlu = O=C(O)[C@H](CCC(=O)[*:2])N[*:1]; Desaminohistidyl = O=C(CCc1c[nH]cn1)*; Aib = CC(C)(N)C(=O)O

Target: T1, human glucagon receptor (Homo sapiens, UniProt P47871)
T1 construct: expressed in transfected cells; host or cells: membranes of BHK cells, clone BHK hGCGR A3*25
T1 sequence (P47871 26-477): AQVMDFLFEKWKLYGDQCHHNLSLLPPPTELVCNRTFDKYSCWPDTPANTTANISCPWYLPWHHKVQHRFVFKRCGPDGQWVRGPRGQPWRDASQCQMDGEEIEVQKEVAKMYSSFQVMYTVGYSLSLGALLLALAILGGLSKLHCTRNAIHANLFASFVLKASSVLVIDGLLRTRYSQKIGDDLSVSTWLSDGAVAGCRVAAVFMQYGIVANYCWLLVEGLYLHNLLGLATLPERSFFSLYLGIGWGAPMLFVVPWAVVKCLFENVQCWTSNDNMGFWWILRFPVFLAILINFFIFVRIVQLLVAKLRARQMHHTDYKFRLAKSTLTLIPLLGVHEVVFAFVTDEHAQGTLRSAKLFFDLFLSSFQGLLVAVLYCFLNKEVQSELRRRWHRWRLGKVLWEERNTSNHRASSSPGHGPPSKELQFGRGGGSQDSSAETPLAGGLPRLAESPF
Experiment: Assay (I)(b): glucagon receptor potency, CRE luciferase reporter gene assay in BHK cells
Format: cell-based
Conditions: BHK cells expressing human glucagon receptor, read-out: EC50 GlucagonR
Description: Assay (I): GLP-1 and Glucagon Receptor Potency The purpose of this example was to test the activity or potency, of the GLP-1 derivatives of the invention, in vitro. The in vitro potency is the measure of human GLP-1 receptor (GLP-1R) or glucagon receptor (glucagonR) activation, respectively, in a whole cell assay. In vitro potency was determined by measuring the cellular response of human GLP-1 or glucagon receptor activation, respectively, in a reporter gene assay. The assay was performed in a BHK cell line that stably expresses either the human GLP-1 receptor or the human glucagon receptor and comprises the DNA for the cAMP response element (CRE) coupled to a promoter and the gene for firefly luciferase (CRE luciferase). […] When assay incubation was completed, the luciferase substrate (luciferin) was added and the enzyme converted luciferin to oxyluciferin and produces bioluminescence. The luminescence was measured as the readout for the assay. […] The cells were counted and adjusted to 5×10EE3 cells/50 μl (1×10EE5 cells/ml) in Assay Medium. […] Each assay plate was read in a Perkin Elmer TopCount NXT instrument. […] EC50 values were calculated by the software and reported in pM.

EC50: 0.143 nM
SMILES: CC[C@H](C)[C@H](NC(=O)[C@H](Cc1ccccc1)NC(=O)[C@H](CCC(=O)O)NC(=O)[C@H](CCCNC(=N)N)NC(=O)[C@H](C)NC(=O)[C@H](C)NC(=O)[C@H](CCC(N)=O)NC(=O)CNC(=O)[C@H](CCC(=O)O)NC(=O)[C@H](CC(C)C)NC(=O)[C@H](Cc1ccc(O)cc1)NC(=O)[C@H](CCCNC(=N)N)NC(=O)[C@H](CO)NC(=O)[C@@H](NC(=O)[C@H](CC(=O)O)NC(=O)[C@H](CO)NC(=O)[C@@H](NC(=O)[C@H](Cc1ccccc1)NC(=O)[C@@H](NC(=O)CNC(=O)[C@H](Cc1c[nH]cn1)NC(=O)C(C)(C)NC(=O)CCc1c[nH]cn1)[C@@H](C)O)[C@@H](C)O)C(C)C)C(=O)N[C@@H](C)C(=O)N[C@@H](Cc1c[nH]c2ccccc12)C(=O)N[C@@H](CC(C)C)C(=O)N[C@@H](CC(C)C)C(=O)N[C@@H](CCCCNC(=O)CNC(=O)[C@H](CO)NC(=O)[C@H](CCC(=O)O)NC(=O)CNC(=O)[C@H](CO)NC(=O)CC[C@H](NC(=O)CC[C@H](NC(=O)CCCCCCCCCCCCCCCCC(=O)O)C(=O)O)C(=O)O)C(=O)N[C@H](C(N)=O)[C@@H](C)O [Example 8, N^ε34-[2-[[(2S)-2-[[(2S)-4-carboxy-2-[[2-[[(2S)-2-[[(4S)-4-carboxy-4-[[(4S)-4-carboxy-4-(17-carboxyheptadecanoylamino)butanoyl]amino]butanoyl]amino]-3-hydroxypropanoyl]amino]acetyl]amino]butanoyl]amino]-3-hydroxypropanoyl]amino]acetyl]-[Imp7,Aib8,His9,Arg18,Arg26,Leu33,Thr35]-GLP-1-(7-35)-peptide amide] (I: Desaminohistidyl-[Aib]HGTFTSDVSRYLEGQAAREFIAWLLKT-NH2 / II: {C18 diacid-γGlu-γGlu}-SGESG; amide I:27-II:C)
